By IC50 is commonly meant the concentration at which inhibition is half-maximal.

SMILES strings stand for the structures.

Among the data in US9771370B2, “Compounds for the inhibition of indoleamine-2,3-dioxygenase” (Merck Patent GmbH, priority 2014, dated 2017) are IC50 values, retold here.

Chain of Recombinant human IDO (P14902 whole entry): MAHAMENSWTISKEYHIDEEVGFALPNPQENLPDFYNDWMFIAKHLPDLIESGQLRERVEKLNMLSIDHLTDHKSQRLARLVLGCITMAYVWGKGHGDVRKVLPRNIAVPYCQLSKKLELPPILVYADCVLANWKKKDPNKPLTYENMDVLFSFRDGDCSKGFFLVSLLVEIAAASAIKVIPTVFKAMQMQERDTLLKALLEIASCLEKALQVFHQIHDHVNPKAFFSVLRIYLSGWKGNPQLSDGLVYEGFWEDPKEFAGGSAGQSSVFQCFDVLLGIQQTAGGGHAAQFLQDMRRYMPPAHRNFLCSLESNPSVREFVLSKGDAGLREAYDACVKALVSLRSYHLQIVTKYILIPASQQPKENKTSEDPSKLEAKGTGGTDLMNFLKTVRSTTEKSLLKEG

The test deals with Recombinant human IDO (Homo sapiens, UniProt P14902). Description: Bridge-IT tryptophan fluorescence assay of human IDO-1 inhibition. It counts as biochemical. Conditions: recombinant human IDO 7.5 nM, L-tryptophan. An outline of the steps:
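One variant ran L-Trp at 100 μM for 90 min at 37 °C. The other pre-incubated compound for 30 min at 25 °C, then ran 50 μM L-Trp for 60 min at 25 °C.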
For `OC(CC1c2ncccc2-c2cncn21)C1CCOCC1` (single isomer, unassigned) [Compound 92c, 1-(oxan-4-yl)-2-[4,6,9-triazatricyclo[6.4.0.0^[2,6]]dodeca-1(8),2,4,9,11-pentaen-7-yl]ethan-1-ol], the IC50 is greater than 1000 nM.

With `OC(CC1c2ncccc2-c2cncn21)C1CCOCC1` (single isomer, unassigned) [Compound 92d, 1-(oxan-4-yl)-2-[4,6,9-triazatricyclo[6.4.0.0^[2,6]]dodeca-1(8),2,4,9,11-pentaen-7-yl]ethan-1-ol], the IC50 is greater than 1000 nM.

As for `FC1(CCC2c3ncccc3-c3cncn32)CCOCC1` (single isomer, unassigned) [Compound 93a, 7-[2-(4-fluorooxan-4-yl)ethyl]-4,6,9-triazatricyclo[6.4.0.0^[2,6]]dodeca-1(8),2,4,9,11-pentaene], the IC50 was greater than 1000 nM.

`FC1(CCC2c3ncccc3-c3cncn32)CCOCC1` (single isomer, unassigned) [Compound 93b, 7-[2-(4-fluorooxan-4-yl)ethyl]-4,6,9-triazatricyclo[6.4.0.0^[2,6]]dodeca-1(8),2,4,9,11-pentaene]: the IC50 was greater than 1000 nM.

For the molecule `FC1(CCC2c3ccccc3-c3cncn32)CCOCC1` (single isomer, unassigned) [Compound 94a, 5-[2-(4-fluorooxan-4-yl)ethyl]-5H-imidazo[4,3-a]isoindole], the IC50 is greater than 1000 nM.

As to `FC1(CCC2c3ccccc3-c3cncn32)CCOCC1` (single isomer, unassigned) [Compound 94b, 5-[2-(4-fluorooxan-4-yl)ethyl]-5H-imidazo[4,3-a]isoindole], the IC50 was less than 100 nM.

For the molecule `Fc1cccc2c1C(CCC1(F)CCOCC1)n1cncc1-2` (single isomer, unassigned) [Compound 95a, 6-fluoro-5-[2-(4-fluorooxan-4-yl)ethyl]-5H-imidazo[4,3-a]isoindole], the IC50 is greater than 1000 nM.

Regarding `Fc1cccc2c1C(CCC1(F)CCOCC1)n1cncc1-2` (single isomer, unassigned) [Compound 95b, 6-fluoro-5-[2-(4-fluorooxan-4-yl)ethyl]-5H-imidazo[4,3-a]isoindole], the IC50 fell in the range of 100 to 1000 nM.

As for `FC1(CCC2c3c(Cl)cccc3-c3cncn32)CCOCC1` (single isomer, unassigned) [Compound 96a, 6-chloro-5-[2-(4-fluorooxan-4-yl)ethyl]-5H-imidazo[4,3-a]isoindole], the IC50 was greater than 1000 nM.

On to `FC1(CCC2c3c(Cl)cccc3-c3cncn32)CCOCC1` (single isomer, unassigned) [Compound 96b, 6-chloro-5-[2-(4-fluorooxan-4-yl)ethyl]-5H-imidazo[4,3-a]isoindole], for which the concentration for half-maximal inhibition (IC50) lay within 100 to 1000 nM.

For the molecule `FC(CC1c2ncccc2-c2cncn21)C1CCCCC1` (single isomer, unassigned) [Compound 97a, 7-[2-cyclohexyl-2-fluoroethyl]-4,6,9-triazatricyclo[6.4.0.0^[2,6]]dodeca-1(8),2,4,9,11-pentaene], the IC50 is greater than 1000 nM.

Take `FC(CC1c2ncccc2-c2cncn21)C1CCCCC1` (single isomer, unassigned) [Compound 97b, 7-[2-cyclohexyl-2-fluoroethyl]-4,6,9-triazatricyclo[6.4.0.0^[2,6]]dodeca-1(8),2,4,9,11-pentaene]: the IC50 was in the range of 100 to 1000 nM.

Consider `FC(CC1c2ncccc2-c2cncn21)C1CCCCC1` (single isomer, unassigned) [Compound 97c, 7-[2-cyclohexyl-2-fluoroethyl]-4,6,9-triazatricyclo[6.4.0.0^[2,6]]dodeca-1(8),2,4,9,11-pentaene], for which the IC50 lay in the range of 100 to 1000 nM.

For `FC(CC1c2ncccc2-c2cncn21)C1CCCCC1` (single isomer, unassigned) [Compound 97d, 7-[2-cyclohexyl-2-fluoroethyl]-4,6,9-triazatricyclo[6.4.0.0^[2,6]]dodeca-1(8),2,4,9,11-pentaene], the IC50 was greater than 1000 nM.

Turning to `Fc1cccc2c1C(CC(F)C1CCCCC1)n1cncc1-2` (single isomer, unassigned) [Compound 98a, 5-[2-cyclohexyl-2-fluoroethyl]-6-fluoro-5H-imidazo[4,3-a]isoindole], the IC50 fell in the range of 100 to 1000 nM.

Regarding `Fc1cccc2c1C(CC(F)C1CCCCC1)n1cncc1-2` (single isomer, unassigned) [Compound 98b, 5-[2-cyclohexyl-2-fluoroethyl]-6-fluoro-5H-imidazo[4,3-a]isoindole], the IC50 was less than 100 nM.

In the case of `NC(=O)C1CCC(F)(CCC2c3c(Cl)cccc3-c3cncn32)CC1` (single isomer, unassigned) [Compound 99a, 4-[2-[6-chloro-5H-imidazo[4,3-a]isoindol-5-yl]ethyl]-4-fluorocyclohexane-1-carboxamide], the IC50 is greater than 1000 nM.

With `NC(=O)C1CCC(F)(CCC2c3c(Cl)cccc3-c3cncn32)CC1` (single isomer, unassigned) [Compound 99b, 4-[2-[6-chloro-5H-imidazo[4,3-a]isoindol-5-yl]ethyl]-4-fluorocyclohexane-1-carboxamide], the IC50 is 100 to 1000 nM.

As to `NC(=O)C1CCC(F)(CCC2c3c(Cl)cccc3-c3cncn32)CC1` (single isomer, unassigned) [Compound 99c, 4-[2-[6-chloro-5H-imidazo[4,3-a]isoindol-5-yl]ethyl]-4-fluorocyclohexane-1-carboxamide], the IC50 is less than 100 nM.

In the case of `NC(=O)C1CCC(F)(CCC2c3c(Cl)cccc3-c3cncn32)CC1` (single isomer, unassigned) [Compound 99d, 4-[2-[6-chloro-5H-imidazo[4,3-a]isoindol-5-yl]ethyl]-4-fluorocyclohexane-1-carboxamide], the IC50 was greater than 1000 nM.

Turning to `OC(CC1c2nccc(F)c2-c2cncn21)C1CCCCC1` (single isomer, unassigned) [Compound 101a, 1-cyclohexyl-2-[12-fluoro-4,6,9-triazatricyclo[6.4.0.0^[2,6]]dodeca-1(8),2,4,9,11-pentaen-7-yl]ethan-1-ol], the IC50 is greater than 1000 nM.

On to `OC(CC1c2nccc(F)c2-c2cncn21)C1CCCCC1` (single isomer, unassigned) [Compound 101b, 1-cyclohexyl-2-[12-fluoro-4,6,9-triazatricyclo[6.4.0.0^[2,6]]dodeca-1(8),2,4,9,11-pentaen-7-yl]ethan-1-ol], for which the IC50 is greater than 1000 nM.

For the molecule `OC(CC1c2nccc(F)c2-c2cncn21)C1CCCCC1` (single isomer, unassigned) [Compound 101c, 1-cyclohexyl-2-[12-fluoro-4,6,9-triazatricyclo[6.4.0.0^[2,6]]dodeca-1(8),2,4,9,11-pentaen-7-yl]ethan-1-ol], the IC50 was greater than 1000 nM.

For the molecule `OC(CC1c2nccc(F)c2-c2cncn21)C1CCCCC1` (single isomer, unassigned) [Compound 101d, 1-cyclohexyl-2-[12-fluoro-4,6,9-triazatricyclo[6.4.0.0^[2,6]]dodeca-1(8),2,4,9,11-pentaen-7-yl]ethan-1-ol], the IC50 was greater than 1000 nM.

Take `Fc1ccnc2c1-c1cncn1C2CCC1(F)CCCCC1` (single isomer, unassigned) [Compound 102a, 12-fluoro-7-[2-(1-fluorocyclohexyl)ethyl]-4,6,9-triazatricyclo[6.4.0.0^[2,6]]dodeca-1(8),2,4,9,11-pentaene]: the IC50 was greater than 1000 nM.

For `Fc1ccnc2c1-c1cncn1C2CCC1(F)CCCCC1` (single isomer, unassigned) [Compound 102b, 12-fluoro-7-[2-(1-fluorocyclohexyl)ethyl]-4,6,9-triazatricyclo[6.4.0.0^[2,6]]dodeca-1(8),2,4,9,11-pentaene], the IC50 was greater than 1000 nM.

`OCC1CCC(F)(CCC2c3c(Cl)cccc3-c3cncn32)CC1` (single isomer, unassigned) [Compound 105a, [4-[2-[6-chloro-5H-imidazo[4,3-a]isoindol-5-yl]ethyl]-4-fluorocyclohexyl]methanol]: the IC50 is greater than 1000 nM.

Consider `OCC1CCC(F)(CCC2c3c(Cl)cccc3-c3cncn32)CC1` (single isomer, unassigned) [Compound 105c, [4-[2-[6-chloro-5H-imidazo[4,3-a]isoindol-5-yl]ethyl]-4-fluorocyclohexyl]methanol], for which the IC50 was less than 100 nM.

Turning to `OC(CC1c2ncccc2-c2cncn21)C1(F)CCCCC1` (single isomer, unassigned) [Compound 109a, 1-(1-fluorocyclohexyl)-2-[4,6,9-triazatricyclo[6.4.0.0^[2,6]]dodeca-1(8),2,4,9,11-pentaen-7-yl]ethan-1-ol], the IC50 was greater than 1000 nM.

Consider `OC(CC1c2ncccc2-c2cncn21)C1(F)CCCCC1` (single isomer, unassigned) [Compound 109c, 1-(1-fluorocyclohexyl)-2-[4,6,9-triazatricyclo[6.4.0.0^[2,6]]dodeca-1(8),2,4,9,11-pentaen-7-yl]ethan-1-ol], for which the IC50 lay in the range of 100 to 1000 nM.

On to `NC(=O)CC1CCC(F)(CCC2c3ccccc3-c3cncn32)CC1` (single isomer, unassigned) [Compound 112a, 2-[4-fluoro-4-[2-[5H-imidazo[4,3-a]isoindol-5-yl]ethyl]cyclohexyl]acetamide], for which the IC50 is greater than 1000 nM.

Consider `NC(=O)CC1CCC(F)(CCC2c3ccccc3-c3cncn32)CC1` (single isomer, unassigned) [Compound 112b, 2-[4-fluoro-4-[2-[5H-imidazo[4,3-a]isoindol-5-yl]ethyl]cyclohexyl]acetamide], for which the IC50 is less than 100 nM.

`NC(=O)CC1CCC(F)(CCC2c3ccccc3-c3cncn32)CC1` (single isomer, unassigned) [Compound 112c, 2-[4-fluoro-4-[2-[5H-imidazo[4,3-a]isoindol-5-yl]ethyl]cyclohexyl]acetamide]: the IC50 was greater than 1000 nM.

With `NC(=O)CC1CCC(F)(CCC2c3ccccc3-c3cncn32)CC1` (single isomer, unassigned) [Compound 112d, 2-[4-fluoro-4-[2-[5H-imidazo[4,3-a]isoindol-5-yl]ethyl]cyclohexyl]acetamide], the IC50 is less than 100 nM.
